Laboratory results published in patent publication US9120749B2, “Quinoline derivatives and MELK inhibitors containing the same” (ONCOTHERAPY SCIENCE, INC., priority 2010, dated 2015).

Assays:
T47D cells = assay: Cell-based assay: anti-proliferative activity, Cell Counting Kit-8, 72 hours (T47D); conditions: Homo sapiens, T47D, 72 h
Procedure, shortened: (§1)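 Target-specific cytotoxicity: seeded cells treated with MELK inhibitor candidates for 72 h, proliferation quantified via CCK-8, IC50 fitted.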

HT-1197 cells = assay: Cell-based assay: anti-proliferative activity, Cell Counting Kit-8, 72 hours (HT-1197, negative control without MELK expression); conditions: Homo sapiens, HT1197, 72 h, HT1197 cells (negative control, no MELK expression), 72 hours
Procedure, shortened: as §1

A549 cells = assay: Cell-based assay: anti-proliferative activity, Cell Counting Kit-8, 72 hours (A549); conditions: Homo sapiens, A549, 72 h, 72 hours
Procedure, shortened: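 A549 cells seeded in 96-well plates and exposed to candidate inhibitors for 72 hours. Growth measured with Cell Counting Kit-8; IC50 values calculated from the dose response.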

MELK = MELK (Homo sapiens, UniProt Q14680); assay: Kinase assay: MELK activity, phosphorylation of FITC-labeled histone H3 peptide measured by IMAP fluorescence polarization; format: biochemical; conditions: read-out: IC50 (μM) (kinase assay)
Procedure, shortened: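 Polarization of fluorescence served as the signal for MELK turnover of FITC-conjugated histone H3 peptide. Binding solution quenched each reaction, and plates stood 0.5 hour at room temperature before reading.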

DU4475 cells = assay: Cell-based assay: anti-proliferative activity, Cell Counting Kit-8, 72 hours (DU4475); conditions: Homo sapiens, DU-4475, 72 h

MELK, sequence (Q14680 whole entry, looked up): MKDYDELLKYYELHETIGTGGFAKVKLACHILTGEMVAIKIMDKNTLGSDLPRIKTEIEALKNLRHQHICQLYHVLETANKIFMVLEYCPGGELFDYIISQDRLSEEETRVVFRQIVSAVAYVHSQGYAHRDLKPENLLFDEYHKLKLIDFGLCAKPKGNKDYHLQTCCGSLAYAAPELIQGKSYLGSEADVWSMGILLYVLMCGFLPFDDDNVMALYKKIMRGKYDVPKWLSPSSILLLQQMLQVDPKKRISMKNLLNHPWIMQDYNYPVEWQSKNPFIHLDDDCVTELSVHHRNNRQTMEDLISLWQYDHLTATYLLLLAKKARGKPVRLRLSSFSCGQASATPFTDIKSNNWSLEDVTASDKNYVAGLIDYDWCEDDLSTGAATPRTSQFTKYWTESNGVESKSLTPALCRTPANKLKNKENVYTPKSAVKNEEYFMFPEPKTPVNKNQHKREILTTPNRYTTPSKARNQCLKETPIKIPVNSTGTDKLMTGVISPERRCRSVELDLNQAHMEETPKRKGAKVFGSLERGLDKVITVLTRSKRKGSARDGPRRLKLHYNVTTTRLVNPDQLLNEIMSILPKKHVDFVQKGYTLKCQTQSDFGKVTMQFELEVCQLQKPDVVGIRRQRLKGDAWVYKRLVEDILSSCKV

SMILES | IC50 (T47D cells) [µM] | IC50 (HT-1197 cells) [µM] | IC50 (A549 cells) [µM] | IC50 (MELK) [µM] | IC50 (DU4475 cells) [µM]
COc1cc(-c2ccc3ncc(C(=O)C4CC4)c(NC4CCC(N5CC[C@@H](F)C5)CC4)c3c2)cc(Cl)c1O (stereo partly drawn) [Example 645, (R)-(6-(3-chloro-4-hydroxy-5-methoxyphenyl)-4-(4-(3-fluoropyrrolidin-1-yl)cyclohexylamino)quinolin-3-yl)(cyclopropyl)methanone] | 0.45 | 2.2 | 0.33 | 0.0062 | 0.29
COc1cc(-c2ccc3ncc(C(=O)C4CC4)c(NC4CCNCC4)c3c2)cc(Cl)c1O [Example 727, (6-(3-chloro-4-hydroxy-5-methoxyphenyl)-4-(piperidin-4-ylamino)quinolin-3-yl)(cyclopropyl)methanone] | 0.37 | 1.1 | 0.19 | 0.0034 | 0.14
CN(C)CCc1cccc(Nc2c(C(=O)C3CC3)cnc3ccc(-c4cc(Cl)c(O)c(Cl)c4)cc23)c1 [Example 698, Cyclopropyl{6-(3,5-dichloro-4-hydroxyphenyl)-4-[3-(2-(dimethylamino)ethyl)phenylamino]quinolin-3-yl}methanone] | 0.3 | 10 | 0.05 | 0.0024 | 0.04
CC(=O)c1cnc2ccc(-c3cc(Cl)c(O)c(Cl)c3)cc2c1Nc1ccc2c(c1)CCC2N(C)C (centres unmarked) [Example 720, 1-(6-(3,5-dichloro-4-hydroxyphenyl)-4-((1-(dimethylamino)-2,3-dihydro-1H-inden-5-yl)amino)quinolin-3-yl)ethanone] | 0.059 | 0.38 | 0.063 | 0.0033 | 0.032
COc1cc(-c2ccc3ncc(C(=O)C(C)C)c(Nc4ccc(CN(C)C)cc4)c3c2)cc(Cl)c1O [Example 640, 1-(6-(3-chloro-4-hydroxy-5-methoxyphenyl)-4-(4-((dimethylamino)methyl)phenylamino)quinolin-3-yl)-2-methylpropan-1-one] | 0.54 | 0.82 | 0.61 | 0.027 | 0.52
CC(C)C(=O)c1cnc2ccc(-c3cc(F)c(O)c(Cl)c3)cc2c1Nc1ccc(N2CCNCC2)nc1 [Example 674, 1-(6-(3-chloro-5-fluoro-4-hydroxyphenyl)-4-(6-(piperazin-1-yl)pyridin-3-ylamino)quinolin-3-yl)-2-methylpropan-1-one] | 0.11 | 2.4 | 0.46 | 0.0069 | 0.15
COc1cc(-c2ccc3ncc(C(=O)C4CC4)c(N[C@H]4CC[C@H](CN5CCC(O)C5)CC4)c3c2)cc(Cl)c1O (some centres unmarked) [Example 630] | 0.41 | 3.6 | 0.19 | 0.0023 | 0.17
COc1cc(-c2ccc3ncc(C(=O)C4CC4)c(Nc4ccc(OCCN)nc4)c3c2)cc(Cl)c1O [Example 722, (4-(6-(2-aminoethoxy)pyridin-3-ylamino)-6-(3-chloro-4-hydroxy-5-methoxyphenyl)quinolin-3-yl)(cyclopropyl)methanone] | 0.19 | 2.3 | 0.32 | 0.0043 | 0.19
COc1cc(-c2ccc3ncc(C(C)=O)c(Nc4cccc(CCN(C)C)c4)c3c2)cc(Cl)c1O [Example 730, 1-(6-(3-chloro-4-hydroxy-5-methoxyphenyl)-4-(3-(2-(dimethylamino)ethyl)phenylamino)quinolin-3-yl)ethanone] | 2.1 | 8 | 0.82 | 0.0026 | 0.69
CN(C)C[C@]1(O)CC[C@@H](Nc2c(C(=O)C3CC3)cnc3ccc(-c4cc(Cl)c(O)c(Cl)c4)cc23)CC1 [Example 652, cyclopropyl(6-(3,5-dichloro-4-hydroxyphenyl)-4-((cis-4-((dimethylamino)methyl)-4-hydroxycyclohexyl)amino)quinolin-3-yl)methanone] | 0.15 | 1.4 | 0.15 | 0.0011 | 0.051
CCC(=O)c1cnc2ccc(-c3cc(Cl)c(O)c(Cl)c3)cc2c1N[C@H]1CC[C@H](CN(C)C)CC1 [Example 715, 1-(6-(3,5-dichloro-4-hydroxyphenyl)-4-((trans-4-((dimethylamino)methyl)cyclohexyl)amino)quinolin-3-yl)propan-1-one] | 0.087 | 0.84 | 0.11 | 0.0015 | 0.046
NCCOc1ccc(Nc2c(C(=O)C3CC3)cnc3ccc(-c4cc(Cl)c(O)c(Cl)c4)cc23)cn1 [Example 723, (4-(6-(2-Aminoethoxy)pyridin-3-ylamino)-6-(3,5-dichloro-4-hydroxyphenyl)quinolin-3-yl)(cyclopropyl)methanone] | 0.099 | 2.1 | 0.23 | 0.0019 | 0.028
CN(C)Cc1ccc(Nc2c(C(=O)C3CC3)cnc3ccc(-c4cc(Cl)c(O)c(Cl)c4)cc23)cn1 [Example 657, Cyclopropyl{6-(3,5-dichloro-4-hydroxyphenyl)-4-[6-((dimethylamino)methyl)pyridin-3-ylamino]quinolin-3-yl}methanone] | 0.31 | 2.8 | 0.18 | 0.0089 | 0.098
CN1CCN(Cc2ccc(Nc3c(C(=O)C4CC4)cnc4ccc(-c5cc(F)c(O)c(Cl)c5)cc34)cn2)CC1 [Example 684, (6-(3-chloro-5-fluoro-4-hydroxyphenyl)-4-(6-((4-methylpiperazin-1-yl)methyl)pyridin-3-ylamino)quinolin-3-yl)(cyclopropyl)methanone] | 0.88 | 15 | 1.5 | 0.05 | 0.82
COc1cc(-c2ccc3ncc(C(=O)C4CC4)c(Nc4cccc(CCN(C)C)c4)c3c2)cc(Cl)c1O [Example 692, (6-(3-chloro-4-hydroxy-5-methoxyphenyl)-4-(3-(2-(dimethylamino)ethyl)phenylamino)quinolin-3-yl)(cyclopropyl)methanone] | 1 | 5.9 | 0.37 | 0.0056 | 0.3
O=C(c1cnc2ccc(-c3cc(Cl)c(O)c(Cl)c3)cc2c1NC1CCC(N2CC[C@@H](F)C2)CC1)C1CC1 (stereo partly drawn) [Example 643, (R)-cyclopropyl(6-(3,5-dichloro-4-hydroxyphenyl)-4-(4-(3-fluoropyrrolidin-1-yl)cyclohexylamino)quinolin-3-yl)methanone] | 0.37 | 2.4 | 0.34 | 0.004 | 0.14
O=C(c1cnc2ccc(-c3cc(Cl)c(O)c(Cl)c3)cc2c1Nc1ccc(NC2CCNC2)nc1)C1CC1 (centres unmarked) [Example 666, cyclopropyl(6-(3,5-dichloro-4-hydroxyphenyl)-4-(6-(pyrrolidin-3-ylamino)pyridin-3-ylamino)quinolin-3-yl)methanone] | 0.34 | 10 | 10 | 0.024 | 0.071
NCCOc1ccc(Nc2c(C(=O)C3CC3)cnc3ccc(-c4cc(F)c(O)c(Cl)c4)cc23)cn1 [Example 724, (4-(6-(2-Aminoethoxy)pyridin-3-ylamino)-6-(3-chloro-5-fluoro-4-hydroxyphenyl)quinolin-3-yl)(cyclopropyl)methanone] | 0.07 | 2.8 | 0.23 | 0.0055 | 0.035
O=C(c1cnc2ccc(-c3cc(F)c(O)c(Cl)c3)cc2c1Nc1ccc(NCCO)nc1)C1CC1 [Example 679, (6-(3-chloro-5-fluoro-4-hydroxyphenyl)-4-(6-(2-hydroxyethylamino)pyridin-3-ylamino)quinolin-3-yl)(cyclopropyl)methanone] | 0.23 | 3.7 | 1.3 | 0.03 | 0.12
NC1CCCN(c2ccc(Nc3c(C(=O)C4CC4)cnc4ccc(-c5cc(F)c(O)c(F)c5)cc34)cn2)C1 (centres unmarked) [Example 725, (4-(6-(3-Aminopiperidin-1-yl)pyridin-3-ylamino)-6-(3,5-difluoro-4-hydroxyphenyl)quinolin-3-yl)(cyclopropyl)methanone] | 0.0078 | 0.11 | 0.012 | 0.003 | 0.01
CN[C@H]1CC[C@H](n2cc(Nc3c(C(=O)C4CC4)cnc4ccc(-c5cc(Cl)c(O)c(Cl)c5)cc34)cn2)CC1 [Example 705, Cyclopropyl{6-(3,5-dichloro-4-hydroxyphenyl)-4-[1-(trans-4-(methylamino)cyclohexyl)-1H-pyrazol-4-ylamino]quinolin-3-yl}methanone] | 0.24 | 10 | 1.7 | 0.0017 | 0.072
CN(C)CCOc1ccc(Nc2c(C(=O)C3CC3)cnc3ccc(-c4cc(F)c(O)c(Cl)c4)cc23)cn1 [Example 710, (6-(3-Chloro-5-fluoro-4-hydroxyphenyl)-4-(6-(2-(dimethylamino)ethoxy)pyridin-3-ylamino)quinolin-3-yl)(cyclopropyl)methanone] | 0.15 | 2 | 0.09 | 0.0069 | 0.083
